From PubChem BioAssay (NCI)
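Dose response: 5 concentrations. Exposure: 48 h. Format: 96-well plates. Endpoint: linear interpolation; highest concentration if not reached. GI50 is the concentration that inhibits growth by half. TGI denotes the concentration required for complete inhibition of growth.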

Assays:
Experiment in all cases: DTP human tumour cell line panel, 48 h
NCI-H23 lung = tested on: NCI-H23 lung
IGROV1 ovarian = tested on: IGROV1 ovarian
RPMI-8226 leukemia = tested on: RPMI-8226 leukemia
SK-OV-3 ovarian = tested on: SK-OV-3 ovarian
MALME-3M melanoma = tested on: MALME-3M melanoma
OVCAR-4 ovarian = tested on: OVCAR-4 ovarian
RXF 393 renal = tested on: RXF 393 renal
UACC-62 melanoma = tested on: UACC-62 melanoma
SW-620 colon = tested on: SW-620 colon
OVCAR-3 ovarian = tested on: OVCAR-3 ovarian
NCI-H226 lung = tested on: NCI-H226 lung
MDA-MB-435 = tested on: MDA-MB-435
CCRF-CEM leukemia = tested on: CCRF-CEM leukemia
MDA-MB-231 breast = tested on: MDA-MB-231 breast
A549 NSCLC = tested on: A549 NSCLC
U251 CNS = tested on: U251 CNS
HCC-2998 colon = tested on: HCC-2998 colon
UO-31 renal = tested on: UO-31 renal
OVCAR-8 ovarian = tested on: OVCAR-8 ovarian
SK-MEL-5 melanoma = tested on: SK-MEL-5 melanoma
SF-268 CNS = tested on: SF-268 CNS
M14 melanoma = tested on: M14 melanoma
PC-3 prostate = tested on: PC-3 prostate
HCT-116 colon = tested on: HCT-116 colon
ACHN renal = tested on: ACHN renal
LOX IMVI melanoma = tested on: LOX IMVI melanoma
MCF7 breast = tested on: MCF7 breast
NCI-H522 lung = tested on: NCI-H522 lung
T-47D breast = tested on: T-47D breast
SF-295 CNS = tested on: SF-295 CNS
UACC-257 melanoma = tested on: UACC-257 melanoma
TK-10 renal = tested on: TK-10 renal
SF-539 CNS = tested on: SF-539 CNS
DU-145 prostate = tested on: DU-145 prostate
MOLT-4 leukemia = tested on: MOLT-4 leukemia
NCI-H460 lung = tested on: NCI-H460 lung
BT-549 breast = tested on: BT-549 breast
786-0 renal = tested on: 786-0 renal
EKVX NSCLC = tested on: EKVX NSCLC
HCT-15 colon = tested on: HCT-15 colon
COLO 205 colon = tested on: COLO 205 colon
NCI/ADR-RES ovarian = tested on: NCI/ADR-RES ovarian
SK-MEL-2 melanoma = tested on: SK-MEL-2 melanoma
OVCAR-5 ovarian = tested on: OVCAR-5 ovarian
SNB-75 CNS = tested on: SNB-75 CNS
SR leukemia = tested on: SR leukemia
SK-MEL-28 melanoma = tested on: SK-MEL-28 melanoma
SN12C renal = tested on: SN12C renal
HT29 colon = tested on: HT29 colon
K-562 leukemia = tested on: K-562 leukemia
A498 renal = tested on: A498 renal
SNB-19 CNS = tested on: SNB-19 CNS
HOP-62 NSCLC = tested on: HOP-62 NSCLC
HS 578T breast = tested on: HS 578T breast
CAKI-1 renal = tested on: CAKI-1 renal
KM12 colon = tested on: KM12 colon

`Cc1cc(N2CCC(N3CCCC3)CC2)nc(/N=C(\N)Nc2ccc(Cl)c(Cl)c2)n1` gave a GI50 (NCI-H23 lung) of 2.12 µM, a TGI (NCI-H23 lung) of 6.61 µM and a GI50 (IGROV1 ovarian) of 2.14 µM. The TGI (IGROV1 ovarian) was 5.11 µM, the GI50 (RPMI-8226 leukemia) was 0.264 µM and the TGI (RPMI-8226 leukemia) was 0.926 µM. For the same compound, the GI50 (SK-OV-3 ovarian) was 1.88 µM, the TGI (SK-OV-3 ovarian) was 3.49 µM and the GI50 (MALME-3M melanoma) was 2 µM. The TGI (MALME-3M melanoma) was 3.82 µM, the GI50 (OVCAR-4 ovarian) was 2.02 µM and the TGI (OVCAR-4 ovarian) was 3.99 µM. It also gave a GI50 (RXF 393 renal) of 1.62 µM, a TGI (RXF 393 renal) of 3.09 µM and a GI50 (UACC-62 melanoma) of 1.9 µM. It also gave a TGI (UACC-62 melanoma) of 3.6 µM, a GI50 (SW-620 colon) of 1.57 µM and a TGI (SW-620 colon) of 3.24 µM. The GI50 (OVCAR-3 ovarian) was 1.72 µM, the TGI (OVCAR-3 ovarian) was 3.26 µM and the GI50 (NCI-H226 lung) was 1.79 µM. For the same compound, the TGI (NCI-H226 lung) was 3.69 µM, the GI50 (MDA-MB-435) was 1.74 µM and the TGI (MDA-MB-435) was 3.3 µM. It also gave a GI50 (CCRF-CEM leukemia) of 3.28 µM, a TGI (CCRF-CEM leukemia) of over 100 µM and a GI50 (MDA-MB-231 breast) of 1.67 µM. It also gave a TGI (MDA-MB-231 breast) of 3.64 µM, a GI50 (A549 NSCLC) of 1.78 µM and a TGI (A549 NSCLC) of 3.42 µM. For the same compound, the GI50 (U251 CNS) was 1.79 µM, the TGI (U251 CNS) was 3.35 µM and the GI50 (HCC-2998 colon) was 1.54 µM. It also gave a TGI (HCC-2998 colon) of 3.17 µM, a GI50 (UO-31 renal) of 1.44 µM and a TGI (UO-31 renal) of 2.85 µM. It also gave a GI50 (OVCAR-8 ovarian) of 1.91 µM, a TGI (OVCAR-8 ovarian) of 3.77 µM and a GI50 (SK-MEL-5 melanoma) of 1.65 µM. It also gave a TGI (SK-MEL-5 melanoma) of 3.02 µM, a GI50 (SF-268 CNS) of 2.34 µM and a TGI (SF-268 CNS) of 6.66 µM. It also gave a GI50 (M14 melanoma) of 1.81 µM, a TGI (M14 melanoma) of 3.67 µM and a GI50 (PC-3 prostate) of 2.65 µM. It also gave a TGI (PC-3 prostate) of 8.26 µM, a GI50 (HCT-116 colon) of 1.93 µM and a TGI (HCT-116 colon) of 3.63 µM. For the same compound, the GI50 (ACHN renal) was 1.71 µM, the TGI (ACHN renal) was 3.22 µM and the GI50 (LOX IMVI melanoma) was 1.61 µM. It also gave a TGI (LOX IMVI melanoma) of 3.35 µM, a GI50 (MCF7 breast) of 1.29 µM and a TGI (MCF7 breast) of 2.69 µM. For the same compound, the GI50 (NCI-H522 lung) was 1.52 µM, the TGI (NCI-H522 lung) was 3.32 µM and the GI50 (T-47D breast) was 1.92 µM. It also gave a TGI (T-47D breast) of 3.59 µM, a GI50 (SF-295 CNS) of 1.84 µM and a TGI (SF-295 CNS) of 3.55 µM. It also gave a GI50 (UACC-257 melanoma) of 1.92 µM, a TGI (UACC-257 melanoma) of 3.54 µM and a GI50 (TK-10 renal) of 1.93 µM. For the same compound, the TGI (TK-10 renal) was 3.72 µM, the GI50 (SF-539 CNS) was 1.72 µM and the TGI (SF-539 CNS) was 3.54 µM. For the same compound, the GI50 (DU-145 prostate) was 1.75 µM, the TGI (DU-145 prostate) was 3.44 µM and the GI50 (MOLT-4 leukemia) was 3.32 µM. It also gave a TGI (MOLT-4 leukemia) of over 100 µM, a GI50 (NCI-H460 lung) of 1.89 µM and a TGI (NCI-H460 lung) of 3.67 µM. The GI50 (BT-549 breast) was 2.44 µM, the TGI (BT-549 breast) was 6.37 µM and the GI50 (786-0 renal) was 1.82 µM. For the same compound, the TGI (786-0 renal) was 3.41 µM, the GI50 (EKVX NSCLC) was 1.71 µM and the TGI (EKVX NSCLC) was 4.4 µM. For the same compound, the GI50 (HCT-15 colon) was 1.64 µM, the TGI (HCT-15 colon) was 3.64 µM and the GI50 (COLO 205 colon) was 1.7 µM. The TGI (COLO 205 colon) was 3.26 µM, the GI50 (NCI/ADR-RES ovarian) was 2.58 µM and the TGI (NCI/ADR-RES ovarian) was 7.66 µM. It also gave a GI50 (SK-MEL-2 melanoma) of 2.11 µM, a TGI (SK-MEL-2 melanoma) of 3.85 µM and a GI50 (OVCAR-5 ovarian) of 1.77 µM. It also gave a TGI (OVCAR-5 ovarian) of 3.79 µM, a GI50 (SNB-75 CNS) of 1.58 µM and a TGI (SNB-75 CNS) of 3.12 µM. It also gave a GI50 (SR leukemia) of 0.255 µM, a TGI (SR leukemia) of over 100 µM and a GI50 (SK-MEL-28 melanoma) of 1.91 µM. The TGI (SK-MEL-28 melanoma) was 3.41 µM, the GI50 (SN12C renal) was 2.7 µM and the TGI (SN12C renal) was 10.9 µM. The GI50 (HT29 colon) was 1.85 µM, the TGI (HT29 colon) was 3.87 µM and the GI50 (K-562 leukemia) was 2.58 µM. For the same compound, the TGI (K-562 leukemia) was over 100 µM, the GI50 (A498 renal) was 1.94 µM and the TGI (A498 renal) was 3.94 µM. For the same compound, the GI50 (SNB-19 CNS) was 2.14 µM, the TGI (SNB-19 CNS) was 5.63 µM and the GI50 (HOP-62 NSCLC) was 1.81 µM. For the same compound, the TGI (HOP-62 NSCLC) was 3.8 µM, the GI50 (HS 578T breast) was 1.91 µM and the TGI (HS 578T breast) was 5.06 µM. It also gave a GI50 (CAKI-1 renal) of 1.29 µM, a TGI (CAKI-1 renal) of 2.68 µM and a GI50 (KM12 colon) of 1.72 µM. It also gave a TGI (KM12 colon) of 3.64 µM.
